Several values for one entry are separate records, joined by “and”; a condition that tells them apart may be missing. Identical values can stand only once.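 Protocol summary: plate cells (96-well), add compound at 5 concentrations, incubate 48 h, interpolate endpoints linearly. GI50 is the concentration that inhibits growth by half. TGI is the concentration that stops growth completely.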
Legend:
Assay in all cases: inhibition of tumour cell growth, NCI panel, 48 h
COLO 205 colon = system: COLO 205 colon
SF-268 CNS = system: SF-268 CNS
HL-60(TB) leukemia = system: HL-60(TB) leukemia
A549 NSCLC = system: A549 NSCLC
HT29 colon = system: HT29 colon
SW-620 colon = system: SW-620 colon
SK-MEL-2 melanoma = system: SK-MEL-2 melanoma
LOX IMVI melanoma = system: LOX IMVI melanoma
A498 renal = system: A498 renal
786-0 renal = system: 786-0 renal

Row | Compound | GI50 (COLO 205 colon) | TGI (COLO 205 colon) | GI50 (SF-268 CNS) | TGI (SF-268 CNS) [µM] | GI50 (HL-60(TB) leukemia) [µM] | TGI (HL-60(TB) leukemia) [µM] | GI50 (A549 NSCLC) [µM] | TGI (A549 NSCLC) [µM] | GI50 (HT29 colon) | TGI (HT29 colon) [µM] | GI50 (SW-620 colon) | TGI (SW-620 colon) | GI50 (SK-MEL-2 melanoma) [µM] | TGI (SK-MEL-2 melanoma) [µM] | GI50 (LOX IMVI melanoma) [µM] | TGI (LOX IMVI melanoma) | GI50 (A498 renal) [µM] | TGI (A498 renal) [µM] | GI50 (786-0 renal) [µM] | TGI (786-0 renal)
1 | CCn1ccnc1C(=O)/C=C/c1ccc(CC(=O)Nc2ccc(F)cc2)cc1 | 4.29 µM | 13.1 µM | 3.81 µM | > 16.7 | 3.18 | 10.9 | 4.16 | 12.7 | 5.64 µM | > 16.7 | 4.29 µM | > 16.7 µM | 6.26 | > 16.7 | 0.561 | 2.83 µM | 3.73 | 15.5 | 4.36 | > 16.7 µM
2 | COc1ccc(-c2c3c(N)c4c(nc3nc3c2c(C)nn3-c2ccccc2)CCCC4)cc1 | 2.32 µM | 5.91 µM | 5.33 µM | 19.4 | 2.12 | 4.3 | 3.01 | 11 | 2.68 µM | 8.8 | 3.05 µM | 11.8 µM | 2.63 | 5.95 | 12 | 27 µM | 11.9 | 27.3 | 4.55 | 17.5 µM
3 | COc1cc2c(cc1NC(=O)C(Cl)Cl)-c1ccc(NC(=O)C(Cl)Cl)cc1C2 | 0.407 µM | 1.1 µM | 0.384 µM | 1.94 | 0.568 | 3.37 | 0.741 | 2.73 | 0.201 µM | 0.641 | 0.264 µM | 0.935 µM | 0.708 | 2.07 | 5.43 | 18.1 µM | 0.551 | 1.89 | 1.27 | 3.92 µM
4 | O=S(=O)(O)c1ccc2cc3nn(-c4ccc(/C=C/c5ccc(-n6nc7cc8ccc(S(=O)(=O)O)cc8cc7n6)cc5S(=O)(=O)O)c(S(=O)(=O)O)c4)nc3cc2c1 | 74 µM | > 100 µM | > 100 µM | > 100 | 31.9 | > 100 | 41.7 | > 100 | 59.1 µM | > 100 | 63.2 µM | > 100 µM | > 100 | > 100 | 16.3 | > 100 µM | > 100 | > 100 | > 100 | > 100 µM
5 | N#C/C(=C1\OC(=N)C(c2ccc(Cl)cc2Cl)C1=O)c1ccc(Cl)cc1Cl (centres undefined) |  | > 100 µM |  | > 100 |  | > 100 |  | > 100 |  | > 100 |  | > 100 µM |  | > 100 |  | > 100 µM |  | > 100 |  | > 100 µM
6 | COC1=C(OC)C(=O)C(CCCCCCCCCCO)=C(C)C1=O | 19.6 µM | 34 µM | 9.61 µM | 30.7 | 3.71 | 11.5 | 15.3 | 34.8 | 14.5 µM | 31.6 | 14.7 µM | 30.9 µM | 3.2 | 8.1 | 0.964 | 9.72 µM | 13.1 | 26.6 | 9.61 | 21.7 µM
7 | O=C(c1c(O)cc(O)cc1O)C1Cc2ccccc21 (centres undefined) |  | > 100 µM |  | > 100 |  | > 100 |  | > 100 |  | > 100 |  | > 100 µM |  | > 100 |  | > 100 µM |  | > 100 |  | > 100 µM
8 | S=C(NCc1ccc2c(c1)OCO2)N1CCN(c2ncnc3c2oc2ccccc23)CC1 | 66.1 µM | > 100 µM | > 100 µM | > 100 | 4.87 | > 95.4 | 7.24 | > 100 | 18 µM | > 100 | > 100 µM | > 100 µM | 50.3 | > 100 | > 100 | > 100 µM | 4.42 | > 100 | > 100 | > 100 µM
9 | CC1(C)[C@H](O)[C@H](F)C[C@@]2(C)Oc3ccc(C(=O)Nc4ccc5c(c4)NC(=O)C54CCN(CCCCC#N)CC4)cc3C[C@H]12 | 1.24 µM and 1.14 µM | 3.42 µM and 3.63 µM | 0.413 µM and 0.4 µM | 10.1 | 0.0583 | 6.04 |  | 8.4 | 1.8 µM and 1.69 µM | 6.73 | 0.0943 µM and 0.0405 µM | 2.52 µM and 2.68 µM | 1.14 | 2.44 | 0.0396 | 2.82 µM and 2.17 µM | 0.0341 | 0.548 | 0.0267 | 1.8 µM and 4.76 µM
10 | c1ccc(CN2COc3c(ccc4c5c(ccc34)CN(Cc3ccccc3)CO5)C2)cc1 |  | > 100 µM |  | > 100 |  | > 100 |  | > 100 |  | > 100 |  | > 100 µM |  | > 100 |  | > 100 µM |  | > 100 |  | > 100 µM
11 | O=[N+]([O-])c1cc(Cc2cc([N+](=O)[O-])c3cccnc3c2O)c(O)c2ncccc12 |  | 56 µM |  | > 43.8 |  | 5.35 |  | 30.8 |  | > 73.1 |  | > 67.9 µM |  | 29.6 |  | > 66.2 µM |  | 31.8 |  | > 54.3 µM
12 | CN1C(=NCCO)NS(=O)(=O)c2ccccc21 |  | > 100 µM |  | > 100 |  | > 100 |  | > 100 |  | > 100 |  | > 100 µM |  | > 100 |  | > 100 µM |  | > 100 |  | > 100 µM
13 | CCOC(=O)C(Cc1ccc(N(CCCl)CCCl)cc1)NC(=O)C(Cc1ccccc1)NC(C)=O (centres undefined) |  | > 0.321 µM |  | > 0.288 |  | > 0.264 |  | > 1 |  | > 0.219 |  | > 1 µM |  | > 0.36 |  | > 0.386 µM |  | > 0.414 |  | > 0.399 µM
14 | O=C(CC(=O)c1ccccc1)C(=O)Nc1ccc(Cl)cc1 |  | > 66.1 µM |  | > 100 |  | > 100 |  | > 100 |  | > 59.6 |  | > 60.2 µM |  | > 100 |  | > 56.7 µM |  | > 100 |  | > 100 µM
15 | N#C/C(=C\c1cc2ccc(N3CCC3)cc2oc1=O)C(=O)N(CC(=O)O)CC(=O)O | > 100 µM | > 100 µM | > 100 µM | > 100 | > 100 | > 100 | > 100 | > 100 | > 100 µM | > 100 | > 100 µM | > 100 µM | > 100 | > 100 | > 100 | > 100 µM | > 100 | > 100 | > 100 | > 100 µM

Reference: PubChem BioAssay (NCI)
